20 compounds from patent publication US20260138976A1 (Hoffmann-La Roche Inc., priority 2022, published 2026) can be followed below.

For assay [1], the target named is T1, DGKα (hDGKalpha(1-735)-N-His) (Homo sapiens, UniProt P23743).
T1 construct: hDGKalpha(1-735)-N-His; His (N); made in house; host or cells: Sf21 insect cells (baculovirus)
Nature of the assay: In vitro DGK inhibition assay, DGKalpha ADP Glo (in house). Format: biochemical. Particulars: 4 nM DGKα, 25 μM ATP, 125 uM DLG in liposomes, 1 hour reaction. As to the method: (§1) DGKα and ζ kinases use ATP to phosphorylate the substrate 1,2-dilauroyl-sn-glycerol (DLG, incorporated in the liposomes). ATP is converted to ADP as a result of this enzymatic reaction. After the kinase reaction, an ATP-depletion reagent is added to terminate the kinase reaction and deplete any remaining ATP, leaving only ADP. Second, a detection reagent is added to simultaneously convert ADP to ATP and allow the newly synthesized ATP to be converted to light using a coupled luciferase/luciferin reaction.
(§2) Full length DGKα and ζ were expressed in Sf21 insect cells by infecting the cells with the baculovirus stock at MOI of 2. Purification of both enzymes was performed as previously described by Takahashi et al., PeerJ, 2018 (Takahashi, D.; Sakane, F. Expression and purification of human diacylglycerol 5 kinase alpha from baculovirus-infected insect cells for structural studies. PeerJ2018, 6, No. e5449).
(§3) A concentrated liposome solution was prepared in assay buffer without DTT and BSA: 2 mM of DLG in 21 mM of total liposome (2 mM DLG/8 mM PS/11 mM PC). The reaction mixtures contain the assay buffer with a final DLG concentration of 125 uM ATP concentrations of 25 μM (for DGKA assay) or 50 μM (for DGKZ assay). The reactions were started by addition of DGK α and ζ kinases at 4 nM and 2 nM final concentrations, respectively. After 1 hour reaction, the amount of ADP formed was detected with the ADP-Glo kinase assay (Promega) according to the manufacturer instructions. Compounds were added in 11-points dose response, starting at […], 1:3 dilutions, with a final DMSO concentration of 2%. The multidrop combi was used as a liquid handler and luminescence was read with 0.5 s by the envision reader (PE).
Background: In ADP-Glo the light output rises with the ADP produced.

Assay [2] concerns the target T2, DGKζ (hDGKzeta(1-928)-N-His) (Homo sapiens, UniProt Q13574).
T2 construct: hDGKzeta(1-928)-N-His; His (N); made in house; host or cells: Sf21 insect cells (baculovirus)
Nature of the assay: In vitro DGK inhibition assay, DGKzeta ADP Glo (in house). It is filed as biochemical. The note with it: 2 nM DGKζ, 50 μM ATP, 125 uM DLG in liposomes, 1 hour reaction. Here is the method:
as §1, §2, §3

As usually defined, the IC50 is the concentration needed to halve the response being measured. A lower IC50 goes with greater potency.

Structures are written as SMILES.

T2 sequence (Q13574 whole entry): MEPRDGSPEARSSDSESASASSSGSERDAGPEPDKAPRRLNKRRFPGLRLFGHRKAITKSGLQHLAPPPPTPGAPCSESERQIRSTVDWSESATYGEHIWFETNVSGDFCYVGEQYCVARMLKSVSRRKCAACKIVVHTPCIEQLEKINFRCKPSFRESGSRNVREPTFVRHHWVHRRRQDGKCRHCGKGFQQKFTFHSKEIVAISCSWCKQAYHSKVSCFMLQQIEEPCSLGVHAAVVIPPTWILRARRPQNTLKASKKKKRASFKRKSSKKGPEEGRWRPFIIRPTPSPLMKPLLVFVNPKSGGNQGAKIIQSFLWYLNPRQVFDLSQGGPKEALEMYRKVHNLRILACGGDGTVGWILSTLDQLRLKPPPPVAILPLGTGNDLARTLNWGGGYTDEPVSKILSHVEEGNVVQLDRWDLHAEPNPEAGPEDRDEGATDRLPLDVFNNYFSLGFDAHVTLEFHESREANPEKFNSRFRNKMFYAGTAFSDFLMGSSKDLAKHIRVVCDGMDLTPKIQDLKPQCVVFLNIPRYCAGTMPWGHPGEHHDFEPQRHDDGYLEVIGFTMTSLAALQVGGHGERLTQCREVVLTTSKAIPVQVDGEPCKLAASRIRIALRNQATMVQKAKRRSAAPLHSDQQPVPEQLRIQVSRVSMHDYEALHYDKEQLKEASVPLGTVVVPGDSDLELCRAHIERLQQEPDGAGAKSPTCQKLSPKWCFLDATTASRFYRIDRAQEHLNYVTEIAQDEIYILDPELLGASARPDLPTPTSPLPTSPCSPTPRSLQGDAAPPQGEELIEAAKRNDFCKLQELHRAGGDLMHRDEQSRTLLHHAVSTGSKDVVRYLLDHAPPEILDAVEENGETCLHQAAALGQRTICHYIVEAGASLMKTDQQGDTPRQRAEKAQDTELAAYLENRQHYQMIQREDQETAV
T1 sequence (P23743 whole entry): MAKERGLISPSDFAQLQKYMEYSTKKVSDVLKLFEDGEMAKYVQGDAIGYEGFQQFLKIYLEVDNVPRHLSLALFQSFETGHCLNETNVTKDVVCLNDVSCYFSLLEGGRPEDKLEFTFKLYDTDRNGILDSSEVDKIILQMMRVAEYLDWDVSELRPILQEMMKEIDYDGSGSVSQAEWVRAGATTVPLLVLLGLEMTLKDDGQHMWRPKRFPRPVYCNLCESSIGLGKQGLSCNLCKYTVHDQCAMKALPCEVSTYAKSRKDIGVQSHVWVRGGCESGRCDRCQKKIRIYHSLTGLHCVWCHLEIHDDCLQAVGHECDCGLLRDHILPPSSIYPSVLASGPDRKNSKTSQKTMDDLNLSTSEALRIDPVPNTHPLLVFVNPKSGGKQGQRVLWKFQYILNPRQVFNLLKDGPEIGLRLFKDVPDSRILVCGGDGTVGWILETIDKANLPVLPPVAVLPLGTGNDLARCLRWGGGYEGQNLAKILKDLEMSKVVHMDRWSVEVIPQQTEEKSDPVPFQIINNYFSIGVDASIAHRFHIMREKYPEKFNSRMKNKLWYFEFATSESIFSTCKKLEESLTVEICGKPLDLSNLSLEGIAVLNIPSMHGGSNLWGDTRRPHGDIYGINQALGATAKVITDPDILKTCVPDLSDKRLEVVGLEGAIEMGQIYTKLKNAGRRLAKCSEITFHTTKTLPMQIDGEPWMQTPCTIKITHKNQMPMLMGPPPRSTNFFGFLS

For the compound `C[C@@](N)(c1nnc(-c2ccc3c(c2)N(Cc2ccc(-c4ccc(OC(F)(F)F)cn4)cc2)C(=O)[C@@H](N)CS3(=O)=O)o1)C(F)(F)F` [Example 153, (3R)-3-amino-7-[5-[(1R)-1-amino-2,2,2-trifluoro-1-methyl-ethyl]-1,3,4-oxadiazol-2-yl]-1,1-dioxo-5-[[4-[5-(trifluoromethoxy)-2-pyridyl]phenyl]methyl]-2,3-dihydro-1λ^6,5-benzothiazepin-4-one], the IC50 in assay [1] was found to be 2050 nM; in assay [2] it was 2250 nM.

For `COC(=O)N1CC2CC(c3nnc(-c4ccc5c(c4)N(Cc4ccc(-c6ccc(C(F)(F)F)cc6)nc4)C(=O)[C@@H](N)CS5(=O)=O)o3)(C2)C1` [Example 58, methyl 1-[5-[(3R)-3-amino-1,1,4-trioxo-5-[[6-[4-(trifluoromethyl)phenyl]-3-pyridyl]methyl]-2,3-dihydro-1λ^6,5-benzothiazepin-7-yl]-1,3,4-oxadiazol-2-yl]-3-azabicyclo[3.1.1]heptane-3-carboxylate], the IC50 worked out at 26400 nM in assay [1] and 2140 nM in assay [2].

As to `CC(C)(C#N)c1nnc(-c2ccc3c(c2)N(Cc2ccc(-c4ccnc(C(F)(F)F)c4)cc2)C(=O)[C@@H](N)CS3(=O)=O)o1` [Example 111, 2-[5-[(3R)-3-amino-1,1,4-trioxo-5-[[4-[2-(trifluoromethyl)-4-pyridyl]phenyl]methyl]-2,3-dihydro-1λ^6,5-benzothiazepin-7-yl]-1,3,4-oxadiazol-2-yl]-2-methyl-propanenitrile], the IC50 is greater than 62500 nM in assay [1] and 1130 nM in assay [2].

In the case of `N[C@H]1CS(=O)(=O)c2ccc(-c3nnc(C(N)(C4CC4)C(F)(F)F)o3)cc2N(Cc2ccc(-c3noc(C4CC4)n3)cc2)C1=O` (stereo partly shown) [Example 171], the IC50 in assay [1] was greater than 60000 nM; in assay [2], 722 nM.

With `COC(=O)N1CC2CC(c3nnc(-c4ccc5c(c4)N(Cc4ccc(-c6noc(C(F)(F)F)n6)cc4)C(=O)[C@@H](N)CS5(=O)=O)o3)(C2)C1` [Example 158, methyl 1-[5-[(3R)-3-amino-1,1,4-trioxo-5-[[4-[5-(trifluoromethyl)-1,2,4-oxadiazol-3-yl]phenyl]methyl]-2,3-dihydro-1λ^6,5-benzothiazepin-7-yl]-1,3,4-oxadiazol-2-yl]-3-azabicyclo[3.1.1]heptane-3-carboxylate], the IC50 in assay [1] is greater than 60000 nM; in assay [2], 1130 nM.

In the case of `CC(C)(c1nnc(-c2ccc3c(c2)N(Cc2ccc(-c4ccc(OC(F)(F)F)cn4)cc2)C(=O)[C@@H](N)CS3(=O)=O)o1)C(F)(F)F` [Example 165, (3R)-3-amino-1,1-dioxo-7-[5-(2,2,2-trifluoro-1,1-dimethyl-ethyl)-1,3,4-oxadiazol-2-yl]-5-[[4-[5-(trifluoromethoxy)-2-pyridyl]phenyl]methyl]-2,3-dihydro-1λ^6,5-benzothiazepin-4-one], the figures for the half-maximal inhibitory concentration (IC50) in assay [1] and in assay [2] were 1140 nM and 2220 nM, respectively.

With `N#CC1(c2nc(-c3cc4c(cc3F)S(=O)(=O)C[C@H](N)C(=O)N4Cc3ccc(-c4ccc(C(F)(F)F)cn4)cc3)no2)CC1` [Example 17], the figures for the IC50 in assay [1] and in assay [2] were 3210 nM and 464 nM, respectively.

With `Cn1nc(C(F)(F)F)cc1-c1ccc(CN2C(=O)[C@@H](N)CS(=O)(=O)c3ccc(-c4nnc(C(C)(C)C#N)o4)cc32)cc1` [Example 107, 2-[5-[(3R)-3-amino-5-[[4-[2-methyl-5-(trifluoromethyl)pyrazol-3-yl]phenyl]methyl]-1,1,4-trioxo-2,3-dihydro-1λ^6,5-benzothiazepin-7-yl]-1,3,4-oxadiazol-2-yl]-2-methyl-propanenitrile], the IC50 in assay [1] was 1300 nM; in assay [2] it was 843 nM.

For `CC(C)(C)C(N)c1nnc(-c2ccc3c(c2)N(Cc2ccc(-c4noc(C(F)(F)F)n4)cc2)C(=O)[C@@H](N)CS3(=O)=O)o1` (stereo partly drawn) [Example 34, (3R)-3-amino-7-[5-(1-amino-2,2-dimethyl-propyl)-1,3,4-oxadiazol-2-yl]-1,1-dioxo-5-[[4-[5-(trifluoromethyl)-1,2,4-oxadiazol-3-yl]phenyl]methyl]-2,3-dihydro-1λ^6,5-benzothiazepin-4-one], the IC50 in assay [1] amounted to 12200 nM; in assay [2] it was 1670 nM.

For the compound `N[C@H]1CS(=O)(=O)c2ccc(-c3nnc(C4(N)CCCCC4)o3)cc2N(Cc2ccc(-c3ccc(C(F)(F)F)cc3)cc2)C1=O` [Example 42, (3R)-3-amino-7-[5-(1-aminocyclohexyl)-1,3,4-oxadiazol-2-yl]-1,1-dioxo-5-[[4-[4-(trifluoromethyl)phenyl]phenyl]methyl]-2,3-dihydro-1λ^6,5-benzothiazepin-4-one], the figures for the IC50 in assay [1] and in assay [2] were 30400 nM and 8120 nM, respectively.

Take `CC(C)(C#N)c1nnc(-c2ccc3c(c2)N(Cc2ccc(-c4ncc(OC(F)(F)F)cn4)cc2)C(=O)[C@@H](N)CS3(=O)=O)o1` [Example 117]: the IC50 came out at 1140 nM in assay [1] and 1010 nM in assay [2].

Take `CC(C)(C#N)c1nnc(-c2ccc3c(c2)N(Cc2ccc(-c4cc(C(F)(F)F)ccn4)cc2)C(=O)[C@@H](N)CS3(=O)=O)o1` [Example 116, 2-[5-[(3R)-3-amino-1,1,4-trioxo-5-[[4-[4-(trifluoromethyl)-2-pyridyl]phenyl]methyl]-2,3-dihydro-1λ^6,5-benzothiazepin-7-yl]-1,3,4-oxadiazol-2-yl]-2-methyl-propanenitrile]: the IC50 in assay [1] was greater than 62500 nM; in assay [2], 918 nM.

For the compound `COc1ccc(-c2ccc(CN3C(=O)[C@@H](N)CS(=O)(=O)c4ccc(-c5nnc(C6(F)CCCN(C)C6)o5)cc43)cc2)cc1` (stereo partly drawn) [Example 50, (3R)-3-amino-7-[5-(3-fluoro-1-methyl-3-piperidyl)-1,3,4-oxadiazol-2-yl]-5-[[4-(4-methoxyphenyl)phenyl]methyl]-1,1-dioxo-2,3-dihydro-1λ^6,5-benzothiazepin-4-one], the IC50 in assay [1] is 3380 nM; in assay [2], 851 nM.

As to `CC(C)(C#N)c1nnc(-c2ccc3c(c2)N(Cc2ccc(-c4cnc(OC(F)(F)F)cn4)cc2)C(=O)[C@@H](N)CS3(=O)=O)o1` [Example 112], the IC50 in assay [1] was 1750 nM; in assay [2], 473 nM.

In the case of `N[C@H]1CS(=O)(=O)c2ccc(-c3nnc(C(F)C(F)(F)F)o3)cc2N(Cc2ccc(-c3noc(C4CC4)n3)cc2)C1=O` (stereo partly drawn) [Example 168, (3R)-3-amino-5-[[4-(5-cyclopropyl-1,2,4-oxadiazol-3-yl)phenyl]methyl]-1,1-dioxo-7-[5-(1,2,2,2-tetrafluoroethyl)-1,3,4-oxadiazol-2-yl]-2,3-dihydro-1λ^6,5-benzothiazepin-4-one], the half-maximal inhibitory concentration (IC50) in assay [1] is greater than 62500 nM; in assay [2], 1600 nM.

Consider `N[C@H]1CS(=O)(=O)c2cc(F)c(-c3noc(N4CCOC(F)(F)C4)n3)cc2N(Cc2ccc(-c3ccc(C(F)(F)F)cc3)nc2)C1=O` [Example 13, (3R)-3-amino-7-[5-(2,2-difluoromorpholin-4-yl)-1,2,4-oxadiazol-3-yl]-8-fluoro-1,1-dioxo-5-[[6-[4-(trifluoromethyl)phenyl]-3-pyridyl]methyl]-2,3-dihydro-1λ^6,5-benzothiazepin-4-one], for which the IC50 in assay [1] is greater than 62500 nM; in assay [2] it was 769 nM.

In the case of `CC(C)(C#N)c1nnc(-c2ccc3c(c2)N(Cc2ccc(-c4nc(C(F)(F)F)co4)cc2)C(=O)[C@@H](N)CS3(=O)=O)o1` [Example 123, 2-[5-[(3R)-3-amino-1,1,4-trioxo-5-[[4-[4-(trifluoromethyl)oxazol-2-yl]phenyl]methyl]-2,3-dihydro-1λ^6,5-benzothiazepin-7-yl]-1,3,4-oxadiazol-2-yl]-2-methyl-propanenitrile], the IC50 in assay [1] amounted to 1860 nM; in assay [2] it was 893 nM.

For `CC(C)(C#N)c1nnc(-c2ccc3c(c2)N(Cc2ccc(-c4cnc(C(F)(F)F)nc4)cc2)C(=O)[C@@H](N)CS3(=O)=O)o1` [Example 100], the results for the IC50 in assay [1] and in assay [2] were greater than 62500 nM and 1460 nM, respectively.

For `CC(C)(C#N)c1nnc(-c2ccc3c(c2)N(Cc2ccc(-c4cc(OC(F)F)ccn4)cc2)C(=O)[C@@H](N)CS3(=O)=O)o1` [Example 110, 2-[5-[(3R)-3-amino-5-[[4-[4-(difluoromethoxy)-2-pyridyl]phenyl]methyl]-1,1,4-trioxo-2,3-dihydro-1λ^6,5-benzothiazepin-7-yl]-1,3,4-oxadiazol-2-yl]-2-methyl-propanenitrile], the values for the IC50 in assay [1] and in assay [2] were greater than 60000 nM and 507 nM, respectively.

`N[C@H]1CS(=O)(=O)c2cc(F)c(-c3noc(N4CCOC5(CC5)C4)n3)cc2N(Cc2ccc(-c3ccc(C(F)(F)F)cc3)nc2)C1=O` [Example 11, (3R)-3-amino-8-fluoro-7-[5-(4-oxa-7-azaspiro[2.5]octan-7-yl)-1,2,4-oxadiazol-3-yl]-1,1-dioxo-5-[[6-[4-(trifluoromethyl)phenyl]-3-pyridyl]methyl]-2,3-dihydro-1λ^6,5-benzothiazepin-4-one]: the values for the IC50 in assay [1] and in assay [2] were greater than 6250 nM and 690 nM, respectively.
